Assay results taken from the pKa sets of Baltruschat and Czodrowski (2020).

`CCC1OC(=O)CC(O)C(C)C(CC=O)(OC2OC(C)CC(N(C)C)C2O)CC(C)C(=O)C=CC(C)=CC1C` (centres undefined) and `CCC1OC(=O)CC(O)CC(OC2OC(C)CC(N(C)C)C2O)C(CC=O)CC(C)C(=O)C=CC2OC2C1C` (centres undefined) are within 0.2 log units of each other in pKa: 8.83 for the first, 8.79 for the second.

Compared with `COc1ccccc1OCCNCC(O)COc1cccc2[nH]c3ccccc3c12` (centres undefined), `CC(C)NCC(O)COc1cccc2[nH]c3ccccc3c12` (centres undefined) is higher in pKa: 7.97 for the first, 9.52 for the second.

Going from `NC(Cc1c[nH]c2ccccc12)C(=O)NC(Cc1c[nH]c2ccccc12)C(=O)O` (centres undefined) to `NC(Cc1c[nH]c2ccccc12)C(=O)NC(Cc1ccccc1)C(=O)O` (centres undefined), the pKa falls from 3.38 to 3.18.

`C=CCOc1ccccc1OCC(O)CNC(C)C` (centres undefined) and `CC(C)NCC(O)COc1ccc(COCCOC(C)C)cc1` (centres undefined) are the same in pKa: 9.57 for the first, 9.57 for the second.

`CCCCC[C@H](O)/C=C/[C@H]1[C@H](CCCCCCC(=O)O)C(=O)C[C@@H]1O` and `CCCCC[C@H](O)/C=C/[C@H]1[C@H](C/C=C/CCCC(=O)O)C(=O)C[C@@H]1O` are within 0.2 log units of each other in pKa: 4.87 for the first, 4.77 for the second.

`CCN(CC)C(=O)Nc1ccc(OCC(O)CNC)c(C(C)=O)c1` (centres undefined) and `CC(C)(C)NCC(O)COc1cccc2c1C[C@H](O)[C@H](O)C2` (some centres undefined) are within 0.2 log units of each other in pKa: 9.66 for the first, 9.69 for the second.

Going from `CN(C)CCC=C1c2ccccc2CCc2ccccc21` to `CN(C)CCCOc1nn(Cc2ccccc2)c2ccccc12`, the pKa falls from 9.49 to 9.27.

Going from `CC(C(=O)O)c1ccc(-c2ccccc2)c(F)c1` (centres undefined) to `CC(C)n1c(/C=C/[C@H](O)C[C@H](O)CC(=O)O)c(-c2ccc(F)cc2)c2ccccc21`, the pKa rises from 4.03 to 4.31.

Compared with `NC(CC(=O)O)C(=O)O` (centres undefined), `CC(NC(CCc1ccccc1)C(=O)O)C(=O)N1CCCC1C(=O)O` (centres undefined) is lower in pKa: 9.67 for the first, 7.84 for the second.

`COC1CC(OC2C(C)C(O)OC(C)C(C)C(O)C(C)C(=O)C3(CO3)CC(C)C(OC3OC(C)CC(N(C)C)C3O)C2C)OC(C)C1O` (centres undefined) and `CC[C@H]1OC(=O)[C@@H](C)[C@H](O[C@H]2C[C@](C)(OC)[C@H](O)[C@@H](C)O2)[C@@H](C)[C@@H](O[C@@H]2O[C@H](C)C[C@@H](N(C)C)[C@@H]2O)[C@](C)(O)C[C@@H](C)C(=O)[C@@H](C)[C@@H](O)[C@]1(C)O` are within 0.2 log units of each other in pKa: 8.84 for the first, 8.8 for the second.

First: CC(C)(C)NCC(O)COc1ccccc1C1CCCC1 (centres undefined)
Second: CC(C)(C)NC[C@H](O)COc1nsnc1N1CCOCC1
The pKa of the first is higher: 9.92 for the first, 9.53 for the second.

Going from `CCN(C)C(=O)Oc1cccc(C(C)N(C)C)c1` (centres undefined) to `CCC(=O)OC(Cc1ccccc1)(c1ccccc1)C(C)CN(C)C` (centres undefined), the pKa rises from 8.8 to 9.06.

First: CN[C@H]1C(O)O[C@H](CO)[C@@H](O)[C@@H]1O (some centres undefined)
Second: Cc1cc(=O)oc2cc(C3OC(C(=O)O)C(O)C(O)C3O)ccc12 (centres undefined)
The pKa of the first is higher: 9.6 for the first, 2.82 for the second.

First: N#Cc1ccc2c(c1)N(CCCCN1CCC(O)CC1)c1ccccc1S2
Second: CC(C)(C)c1ccc(C(O)CCCN2CCC(C(O)(c3ccccc3)c3ccccc3)CC2)cc1 (centres undefined)
The pKa of the first is lower: 8.76 for the first, 9.86 for the second.

Compared with `CC(Cc1ccc(C(C)(C)C)cc1)CN1CC(C)OC(C)C1` (centres undefined), `COc1ccc([C@@H]2Sc3ccccc3N(CCN(C)C)C(=O)[C@@H]2OC(C)=O)cc1` is higher in pKa: 7.34 for the first, 8.02 for the second.

First: CCCN(CCC)S(=O)(=O)c1ccc(C(=O)O)cc1
Second: CCN(CC)CCOC(=O)c1ccc(N)cc1
The pKa of the first is lower: 3.01 for the first, 9.04 for the second.

`COC1C(OC(C)=O)CC(=O)OC(C)CC2OC2/C=C/C(=O)C(C)CC(CC=O)C1OC1OC(C)C(O)C(N(C)C)C1O` (centres undefined) and `CCC1OC(=O)CC(O)C(C)C(OC2OC(C)C(O)C(N(C)C)C2O)C(CC=O)CC(C)C(=O)C=CC(C)=CC1COC1OC(C)C(O)C(OC)C1CC` (centres undefined) are within 0.2 log units of each other in pKa: 8.44 for the first, 8.36 for the second.

First: CCOC(=O)[C@H](CCc1ccccc1)N[C@@H](C)C(=O)N1CCC[C@H]1C(=O)O
Second: CN(C)CCOC1(c2ccccc2)CC2CCC1(C)C2(C)C (centres undefined)
The pKa of the first is lower: 2.92 for the first, 9.61 for the second.

Going from `COc1ccc2c3c1O[C@H]1[C@@H](O)C=C[C@H]4[C@@H](C2)NCC[C@@]341` to `CC1(C)S[C@@H]2[C@@H](NC(=O)[C@H](N)c3ccc(O)cc3)C(=O)N2[C@H]1C(=O)O`, the pKa falls from 9.23 to 2.6.

Going from `CC[C@H]1OC(=O)[C@@H](C)[C@H](O[C@@H]2C[C@](C)(OC)[C@@H](O)[C@@H](C)O2)[C@@H](C)[C@@H](O[C@@H]2O[C@H](C)C[C@@H](N(C)C)[C@@H]2O)[C@](C)(O)C[C@@H](C)/C(=N/OCOCCOC)[C@@H](C)[C@@H](O)[C@]1(C)O` to `CCC1OC(=O)CC(O)C(C)C(OC2OC(C)C(OC3CC(C)(O)C(O)C(C)O3)C(N(C)C)C2O)C(CC=O)CC(C)C(=O)C=CC(C)=CC1COC1OC(C)C(O)C(OC)C1CC` (centres undefined), the pKa falls from 9.27 to 7.73.

Going from `CO[C@H]1[C@@H](O[C@@H]2O[C@H](C)[C@@H](O[C@H]3C[C@@](C)(O)[C@@H](O[C@@H](O)CC(C)C)[C@H](C)O3)[C@@H](N(C)C)[C@H]2O)[C@@H](CCO)C[C@@H](C)[C@H](O)CC[C@@H]2O[C@H]2C[C@@H](C)O[C@@H](O)C[C@H]1O[C@H](C)O` to `CC(=O)Oc1c(C)cc(OCC(O)CNC(C)C)c(C)c1C` (centres undefined), the pKa rises from 7.61 to 9.54.

First: CN/C(=C\[N+](=O)[O-])NCCSCc1ccc(CN(C)C)o1
Second: O=C1CC2(CCCC2)CC(=O)N1CCCCN1CCN(c2ncccn2)CC1
The pKa of the first is higher: 8.31 for the first, 7.6 for the second.
